From patent US20230322735A1, “AZETIDINYL TRYPTAMINES AND METHODS OF TREATING PSYCHIATRIC DISORDERS” (priority 2020, published 2023)

What was measured:
C57BL/6 mice = test: Head twitch response (HTR) in mice; format: in vivo, mouse; conditions: SC
5-HT1A receptor = biological target: T1, 5-HT1A receptor (Homo sapiens, UniProt P08908); test: FLIPR Ca2+ flux agonist assay at 5-HT1A (CHO cells); format: cell-based
T1 construct: host or cells: CHO cells
T1 sequence (P08908 1-422): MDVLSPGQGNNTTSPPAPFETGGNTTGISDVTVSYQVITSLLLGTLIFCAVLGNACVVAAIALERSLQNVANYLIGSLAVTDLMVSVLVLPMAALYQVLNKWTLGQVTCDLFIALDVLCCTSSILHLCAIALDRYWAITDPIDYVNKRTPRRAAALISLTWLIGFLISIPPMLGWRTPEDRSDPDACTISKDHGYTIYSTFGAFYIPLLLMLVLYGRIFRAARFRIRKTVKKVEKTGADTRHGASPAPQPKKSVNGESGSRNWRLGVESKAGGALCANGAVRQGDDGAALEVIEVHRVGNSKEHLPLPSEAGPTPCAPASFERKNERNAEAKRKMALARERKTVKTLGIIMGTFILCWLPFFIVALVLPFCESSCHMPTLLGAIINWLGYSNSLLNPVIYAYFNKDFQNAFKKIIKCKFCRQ
Method: A solution of 250 mM probenecid in 1 mL FLIPR assay buffer was prepared fresh. This was combined with a fluorescent dye (Fluo-4 Direct™) to make a final assay concentration of 2.5 mM. […] The fluorescent dye was then added to the assay plate along with assay buffer to a final volume of 40 μL. The cell plate was incubated for 50 min at 37° C. and 5% CO2 and placed into the FLIPR Tetra along with the compound plate. 10 μL of references and compounds were then transferred from the compound plate into the cell plate and the fluorescent signal was read.

[1] = Metabolic stability in human liver microsomes (HLM)
[2] = Stability in mouse brain homogenate
[3] = both, human, pooled human liver microsomes, pH 7.4

In the case of `Oc1cccc2[nH]cc(CCN3CCC3)c12` [Compound 2, 3-(2-(azetidin-1-yl)ethyl)-1H-indol-4-ol], the “Average HTR Over 20-min Test” value (C57BL/6 mice; dose 0.1 mg/kg) is reported as 4.667, the “Average HTR Over 20-min Test” value (C57BL/6 mice; dose 1 mg/kg) is reported as 8.667 and the “Average HTR Over 20-min Test” value (C57BL/6 mice; dose 10 mg/kg) is reported as 9.000. For the same molecule, the EC50 (5-HT1A receptor) was 1030 nM, the “5-HT1A % Act @ Max Dose” value (5-HT1A receptor; Ca2+ flux, agonist mode, CHO cells) was 102% and the half-life at 1 μM [1, 3] was greater than 2.42 h. For the same molecule, the microsomal CLint at 1 μM [1, 3] was less than 9.6 µL/min/mg, the “metabolic stability in HLM compared with dimethyl counterpart” value ([1]; vs DMT, psilocin, 5-MeO-DMT respectively) was “greater metabolic stability” and the “stability in mouse brain homogenate (in words)” value [2] was “good stability”. For the same molecule, the half-life at 1 μM ([2]; male, CD-1, mouse, mouse brain homogenate) was greater than 4.82 h and the “% Compound Remaining (after 120 min)” value ([2]; mouse brain homogenate (male CD-1), 1 μM, 37° C., 120 min) was 74.2%.
